Source: ChEMBL document CHEMBL1800005, “Synthesis and biological activity of a series of tetrasubstituted-imidazoles as P2X(7) antagonists” (Bioorg Med Chem Lett, 2010)
Values after ≈ are worked out from the molar mass of the structure shown.

Tests used:
P2X purinoceptor 7 [1] = target: T1, P2X purinoceptor 7 (Homo sapiens, UniProt Q99572); assay: Antagonist activity at human recombinant P2X7 receptor expressed in HEK293 cells by ethidium bromide […] assay; assay type: functional, cell-based
T1 sequence (Q99572 whole entry): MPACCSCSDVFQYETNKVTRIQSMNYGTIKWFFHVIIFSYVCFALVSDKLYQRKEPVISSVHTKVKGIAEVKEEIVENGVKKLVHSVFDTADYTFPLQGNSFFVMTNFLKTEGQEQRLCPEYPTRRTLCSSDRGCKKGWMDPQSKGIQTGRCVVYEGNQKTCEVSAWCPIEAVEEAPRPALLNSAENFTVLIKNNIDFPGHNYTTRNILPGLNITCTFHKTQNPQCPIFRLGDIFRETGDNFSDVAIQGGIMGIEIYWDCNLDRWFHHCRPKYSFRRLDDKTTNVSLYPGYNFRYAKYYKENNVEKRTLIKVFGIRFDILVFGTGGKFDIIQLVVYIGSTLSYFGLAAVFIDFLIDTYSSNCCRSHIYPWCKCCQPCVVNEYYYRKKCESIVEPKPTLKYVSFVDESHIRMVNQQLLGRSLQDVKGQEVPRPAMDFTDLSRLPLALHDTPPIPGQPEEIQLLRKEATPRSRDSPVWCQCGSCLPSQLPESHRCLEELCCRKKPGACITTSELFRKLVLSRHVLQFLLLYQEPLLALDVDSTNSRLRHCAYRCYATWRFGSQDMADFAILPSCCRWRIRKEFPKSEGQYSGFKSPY

P2X purinoceptor 7 [2] = target: T2, P2X purinoceptor 7 (Rattus norvegicus, UniProt Q64663); assay: Antagonist activity at rat recombinant P2X7 receptor expressed in HEK293 cells by ethidium bromide […] assay; assay type: functional, cell-based
T2 sequence (Q64663 whole entry): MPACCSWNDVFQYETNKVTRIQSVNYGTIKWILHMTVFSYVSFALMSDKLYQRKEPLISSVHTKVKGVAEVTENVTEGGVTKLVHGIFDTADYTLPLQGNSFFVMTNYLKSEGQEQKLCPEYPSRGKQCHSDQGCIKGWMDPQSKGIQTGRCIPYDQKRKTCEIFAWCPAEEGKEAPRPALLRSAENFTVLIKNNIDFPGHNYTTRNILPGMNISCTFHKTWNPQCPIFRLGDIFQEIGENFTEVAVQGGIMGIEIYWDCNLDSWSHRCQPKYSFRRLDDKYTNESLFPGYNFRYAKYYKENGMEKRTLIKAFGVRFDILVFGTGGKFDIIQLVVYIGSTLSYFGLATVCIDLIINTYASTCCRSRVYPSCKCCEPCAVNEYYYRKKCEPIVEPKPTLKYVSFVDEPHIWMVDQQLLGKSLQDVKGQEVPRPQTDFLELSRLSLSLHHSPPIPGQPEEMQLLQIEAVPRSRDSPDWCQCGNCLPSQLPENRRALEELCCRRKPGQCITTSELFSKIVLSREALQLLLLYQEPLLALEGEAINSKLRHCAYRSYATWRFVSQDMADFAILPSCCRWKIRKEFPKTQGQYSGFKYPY

[3] = Solubility of compound in simulated gastric fluid at pH 1.2 after 1 hr; assay type: physicochemical
[4] = Tmax in rat at 3 mg/kg, po; assay type: ADME, organism-based; parameters: dose 3 mg/kg, route oral; details: in vivo
[5] = Cmax in rat at 3 mg/kg, po; assay type: ADME, organism-based; parameters: dose 3 mg/kg, route oral; details: in vivo
[6] = Solubility of compound in fasted state simulated intestinal fluid at pH 6.5 after 1 hr; assay type: physicochemical
[7] = Solubility of the compound in water after 1 hr; assay type: physicochemical
[8] = Solubility of compound in fed state simulated intestinal fluid at pH 5 after 1 hr; assay type: physicochemical
Rattus norvegicus = assay: Dose normalized AUC (0 to 6 hrs) in rat at 3 mg/kg, po; assay type: ADME, organism-based; parameters: dose 3 mg/kg, route oral; details: in vivo
Cytochrome P450 1A2 = target: T3, Cytochrome P450 1A2 (Homo sapiens, UniProt P05177); assay: Inhibition of CYP1A2; assay type: ADME
T3 sequence (P05177 whole entry): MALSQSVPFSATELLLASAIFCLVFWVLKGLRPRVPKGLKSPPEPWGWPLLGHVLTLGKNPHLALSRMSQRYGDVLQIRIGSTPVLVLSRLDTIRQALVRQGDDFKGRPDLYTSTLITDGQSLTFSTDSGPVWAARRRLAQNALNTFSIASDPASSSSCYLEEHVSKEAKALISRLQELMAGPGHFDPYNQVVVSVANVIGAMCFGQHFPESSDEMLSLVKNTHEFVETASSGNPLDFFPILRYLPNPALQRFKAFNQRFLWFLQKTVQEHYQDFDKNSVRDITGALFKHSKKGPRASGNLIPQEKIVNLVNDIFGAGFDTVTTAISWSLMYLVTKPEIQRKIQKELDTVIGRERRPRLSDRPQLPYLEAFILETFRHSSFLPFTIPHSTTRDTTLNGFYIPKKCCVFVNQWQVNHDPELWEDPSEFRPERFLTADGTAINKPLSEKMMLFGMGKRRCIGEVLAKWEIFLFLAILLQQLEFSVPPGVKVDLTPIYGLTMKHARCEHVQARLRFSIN

Albumin = Albumin (Homo sapiens, UniProt P02768); assay: Protein binding in human serum albumin; assay type: ADME; details: read-out: PB
Sequence of Albumin (P02768 whole entry): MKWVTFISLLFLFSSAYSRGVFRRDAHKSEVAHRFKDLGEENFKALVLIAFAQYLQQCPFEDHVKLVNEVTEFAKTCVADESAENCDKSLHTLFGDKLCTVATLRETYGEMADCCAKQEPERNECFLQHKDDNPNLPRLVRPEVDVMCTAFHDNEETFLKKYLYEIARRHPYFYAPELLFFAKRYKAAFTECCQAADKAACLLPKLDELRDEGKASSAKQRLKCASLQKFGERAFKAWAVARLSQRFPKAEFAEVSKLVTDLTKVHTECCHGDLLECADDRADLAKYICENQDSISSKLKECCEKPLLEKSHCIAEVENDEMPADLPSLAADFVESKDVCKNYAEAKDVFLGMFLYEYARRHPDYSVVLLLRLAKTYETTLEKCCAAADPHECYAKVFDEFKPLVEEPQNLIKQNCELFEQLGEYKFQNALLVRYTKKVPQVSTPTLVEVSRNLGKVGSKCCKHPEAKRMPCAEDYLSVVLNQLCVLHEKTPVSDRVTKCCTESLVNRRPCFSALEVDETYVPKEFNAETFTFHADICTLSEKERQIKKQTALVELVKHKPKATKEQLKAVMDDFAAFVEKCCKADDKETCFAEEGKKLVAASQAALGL

[9] = Dissociation constant, pKa of the compound; assay type: physicochemical
Cytochrome P450 3A4 = Cytochrome P450 3A4 (Homo sapiens, UniProt P08684); assay: Inhibition of CYP3A4 using diethoxyflourescein as a substrate; assay type: ADME
Sequence of Cytochrome P450 3A4 (P08684 whole entry): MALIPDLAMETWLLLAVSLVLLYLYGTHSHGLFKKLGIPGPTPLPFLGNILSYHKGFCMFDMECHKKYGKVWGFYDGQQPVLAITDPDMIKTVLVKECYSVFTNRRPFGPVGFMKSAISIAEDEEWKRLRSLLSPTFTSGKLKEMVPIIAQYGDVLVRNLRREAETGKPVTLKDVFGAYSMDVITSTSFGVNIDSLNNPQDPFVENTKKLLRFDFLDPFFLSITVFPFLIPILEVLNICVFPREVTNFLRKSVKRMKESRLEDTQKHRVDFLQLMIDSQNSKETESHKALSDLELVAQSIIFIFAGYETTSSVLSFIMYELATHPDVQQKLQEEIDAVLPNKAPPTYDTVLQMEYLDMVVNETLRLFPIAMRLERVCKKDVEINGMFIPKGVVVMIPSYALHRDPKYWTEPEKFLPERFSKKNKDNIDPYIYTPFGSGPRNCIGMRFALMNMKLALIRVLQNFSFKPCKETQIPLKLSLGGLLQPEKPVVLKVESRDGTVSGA

Cytochrome P450 2C19 = Cytochrome P450 2C19 (Homo sapiens, UniProt P33261); assay: Inhibition of CYP2C19; assay type: ADME
Sequence of Cytochrome P450 2C19 (P33261 whole entry): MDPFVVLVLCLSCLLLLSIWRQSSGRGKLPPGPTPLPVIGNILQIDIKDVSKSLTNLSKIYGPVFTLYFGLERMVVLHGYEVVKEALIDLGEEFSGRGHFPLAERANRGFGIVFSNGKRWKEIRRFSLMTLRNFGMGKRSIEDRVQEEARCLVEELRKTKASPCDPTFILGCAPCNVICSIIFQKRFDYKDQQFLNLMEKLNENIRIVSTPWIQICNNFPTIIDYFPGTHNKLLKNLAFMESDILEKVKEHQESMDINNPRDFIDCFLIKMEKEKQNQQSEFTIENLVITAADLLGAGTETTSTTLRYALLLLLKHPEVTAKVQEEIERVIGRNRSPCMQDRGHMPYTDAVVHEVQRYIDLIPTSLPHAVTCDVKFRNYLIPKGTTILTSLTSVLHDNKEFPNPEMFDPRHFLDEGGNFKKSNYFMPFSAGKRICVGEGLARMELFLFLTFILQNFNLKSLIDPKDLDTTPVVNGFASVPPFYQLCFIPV

Cytochrome P450 2D6 = Cytochrome P450 2D6 (Homo sapiens, UniProt P10635); assay: Inhibition of CYP2D6; assay type: ADME
Sequence of Cytochrome P450 2D6 (P10635 whole entry): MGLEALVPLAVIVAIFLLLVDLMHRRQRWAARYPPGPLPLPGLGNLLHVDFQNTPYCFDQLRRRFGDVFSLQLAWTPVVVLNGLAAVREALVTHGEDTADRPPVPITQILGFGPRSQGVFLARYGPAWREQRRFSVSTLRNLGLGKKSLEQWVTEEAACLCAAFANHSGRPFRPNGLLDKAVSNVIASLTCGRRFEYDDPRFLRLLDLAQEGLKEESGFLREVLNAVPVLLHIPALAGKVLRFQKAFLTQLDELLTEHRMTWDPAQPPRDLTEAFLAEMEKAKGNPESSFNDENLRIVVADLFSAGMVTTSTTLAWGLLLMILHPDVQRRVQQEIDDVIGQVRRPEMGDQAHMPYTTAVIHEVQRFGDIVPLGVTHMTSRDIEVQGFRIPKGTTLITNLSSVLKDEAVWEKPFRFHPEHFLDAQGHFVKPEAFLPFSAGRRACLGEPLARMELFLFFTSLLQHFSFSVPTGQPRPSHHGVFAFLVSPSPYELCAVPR

Cytochrome P450 2C9 = Cytochrome P450 2C9 (Homo sapiens, UniProt P11712); assay: Inhibition of CYP2C9; assay type: ADME
Sequence of Cytochrome P450 2C9 (P11712 whole entry): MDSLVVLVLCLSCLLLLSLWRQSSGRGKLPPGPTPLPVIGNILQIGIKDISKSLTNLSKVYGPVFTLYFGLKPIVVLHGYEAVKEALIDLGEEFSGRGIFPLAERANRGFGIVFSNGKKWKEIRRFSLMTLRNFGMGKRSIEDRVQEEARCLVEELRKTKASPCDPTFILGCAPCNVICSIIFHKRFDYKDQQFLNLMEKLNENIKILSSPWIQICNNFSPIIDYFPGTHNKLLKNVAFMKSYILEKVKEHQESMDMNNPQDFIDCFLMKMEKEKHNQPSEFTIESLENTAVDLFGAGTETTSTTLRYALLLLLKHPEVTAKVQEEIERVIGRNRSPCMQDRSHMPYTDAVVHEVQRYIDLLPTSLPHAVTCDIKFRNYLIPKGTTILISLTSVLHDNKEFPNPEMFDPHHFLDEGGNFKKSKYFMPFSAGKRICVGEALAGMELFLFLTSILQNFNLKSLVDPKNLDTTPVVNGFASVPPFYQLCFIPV

With `Cc1nc(-c2ccc(F)cc2F)n(C)c1CC(=O)NCc1ccc(F)c(F)c1F` as the compound, how does the IC50 (P2X purinoceptor 7 [1]) read?
Its IC50 is 63.1 nM.

And the IC50 (P2X purinoceptor 7 [2])?
The IC50 was over 10000 nM.

For `CCn1c(-c2ccccc2)nc(C)c1CC(=O)NCc1ccc(F)c(F)c1F`, which IC50 (P2X purinoceptor 7 [1]) is on record?
Its IC50 is 158 nM.

What about the IC50 (P2X purinoceptor 7 [2]) of the same compound?
The IC50 was 3980 nM.

Which results are given for `Cc1nc(-c2ccc(F)cc2F)n(C)c1CC(=O)NCc1ccc(F)cc1Cl` [listing 1 of 2 here]?
IC50 (P2X purinoceptor 7 [1]): 39.8 nM; solubility at 1 h [3]: > 1000 µg/mL; IC50 (P2X purinoceptor 7 [2]): 316 nM; Tmax [4]: 30 min; Cmax [5]: 430 nM; solubility at 1 h [6]: 370 µg/mL (≈ 907 µM); solubility at 1 h [7]: 920 µg/mL (≈ 2260 µM); solubility at 1 h [8]: 900 µg/mL (≈ 2210 µM); AUC/dose (Rattus norvegicus): 6.8 kg·min/L

Which IC50 (P2X purinoceptor 7 [1]) does the source give for `Cc1nc(-c2ccccc2)n(C)c1CC(=O)NCc1ccc(F)c(F)c1F` here?
Its IC50 is 100 nM.

And the IC50 (P2X purinoceptor 7 [2])?
The IC50 was 5010 nM.

Which IC50 (P2X purinoceptor 7 [1]) does the source give for `Cn1c(CC(=O)NCc2ccc(F)cc2Cl)cnc1-c1ccc(F)cc1F` here?
The IC50 was 200 nM.

And the IC50 (P2X purinoceptor 7 [2])?
Its IC50 is 251 nM.

Which results are given for `CCn1c(-c2ccc(F)cc2F)nc(C)c1CC(=O)NCc1ccc(F)cc1Cl`?
IC50 (P2X purinoceptor 7 [1]): 100 nM; IC50 (P2X purinoceptor 7 [2]): 158 nM

For `Cc1c(Cl)cccc1CNC(=O)Cc1cnc(-c2ccc(F)cc2F)n1C`, which IC50 (P2X purinoceptor 7 [1]) is on record?
Its IC50 is 63.1 nM.

And the IC50 (P2X purinoceptor 7 [2])?
The IC50 was 631 nM.

Which IC50 (P2X purinoceptor 7 [1]) does the source give for `CCn1c(-c2ccccc2)nc(C)c1CC(=O)NCc1c(C)cccc1Cl` here?
The IC50 was 50.1 nM.

What about the IC50 (P2X purinoceptor 7 [2]) of the same compound?
Its IC50 is 501 nM.

Which results are given for `Cc1nn(-c2ccccc2)c(C)c1CC(=O)NCc1ccc(F)cc1Cl`?
solubility at 1 h [3]: 410 µg/mL (≈ 1100 µM); solubility at 1 h [6]: 120 µg/mL (≈ 323 µM); solubility at 1 h [8]: 100 µg/mL (≈ 269 µM)

Which results are given for `CCn1c(-c2ccccc2)nc(C)c1CC(=O)NCc1ccc(F)cc1Cl`?
IC50 (P2X purinoceptor 7 [1]): 100 nM; IC50 (P2X purinoceptor 7 [2]): 158 nM

For `Cc1nc(-c2ccc(F)cc2F)n(C)c1CC(=O)NCc1ccc(F)cc1Cl` [listing 2 of 2 here], which IC50 (Cytochrome P450 1A2) is on record?
The IC50 was over 10000 nM.

And the fraction unbound (Albumin)?
The fraction unbound was 0.09.

And the pKa [9]?
Its pKa is 6.47.

What about the IC50 (Cytochrome P450 3A4) of the same compound?
Its IC50 is 5500 nM.

And the IC50 (Cytochrome P450 2C19)?
The IC50 was over 10000 nM.

What about the IC50 (Cytochrome P450 2D6) of the same compound?
Its IC50 is over 10000 nM.

What about the IC50 (Cytochrome P450 2C9) of the same compound?
Its IC50 is over 10000 nM.

Which IC50 (P2X purinoceptor 7 [1]) does the source give for `CCn1c(-c2ccc(F)cc2F)nc(C)c1CC(=O)NCc1cccc(Cl)c1C` here?
The IC50 was 39.8 nM.

And the IC50 (P2X purinoceptor 7 [2])?
Its IC50 is 398 nM.

Which IC50 (P2X purinoceptor 7 [1]) does the source give for `Cc1nc(-c2ccccc2)n(C)c1CC(=O)NCc1ccc(F)cc1Cl` here?
The IC50 was 39.8 nM.

What about the IC50 (P2X purinoceptor 7 [2]) of the same compound?
Its IC50 is 251 nM.

What does the source list for `CCn1c(-c2ccc(F)cc2F)nc(C)c1CC(=O)NCc1c(C)cccc1Cl`?
IC50 (P2X purinoceptor 7 [1]): 50.1 nM; IC50 (P2X purinoceptor 7 [2]): 631 nM

What does the source list for `Cc1nc(-c2ccc(F)cc2F)n(C)c1CC(=O)NCc1cccc(Cl)c1C`?
IC50 (P2X purinoceptor 7 [1]): 31.6 nM; IC50 (P2X purinoceptor 7 [2]): 631 nM

What does the source list for `CCn1c(CC(=O)NCc2ccc(F)cc2Cl)cnc1-c1ccc(F)cc1F`?
IC50 (P2X purinoceptor 7 [1]): 501 nM; IC50 (P2X purinoceptor 7 [2]): 398 nM

With `CCn1c(-c2ccccc2)nc(C)c1CC(=O)NCc1cccc(Cl)c1C` as the compound, how does the IC50 (P2X purinoceptor 7 [1]) read?
The IC50 was 50.1 nM.

And the IC50 (P2X purinoceptor 7 [2])?
Its IC50 is 631 nM.

With `Cc1cccc(Cl)c1CNC(=O)Cc1c(C)nc(-c2ccccc2)n1C` as the compound, how does the IC50 (P2X purinoceptor 7 [1]) read?
Its IC50 is 50.1 nM.

What about the IC50 (P2X purinoceptor 7 [2]) of the same compound?
The IC50 was 3160 nM.

With `Cc1nc(-c2ccccc2)n(C)c1CC(=O)NCc1cccc(Cl)c1C` as the compound, how does the IC50 (P2X purinoceptor 7 [1]) read?
The IC50 was 50.1 nM.

What about the IC50 (P2X purinoceptor 7 [2]) of the same compound?
Its IC50 is 1580 nM.

Which results are given for `CCn1c(-c2ccc(F)cc2F)nc(C)c1CC(=O)NCc1ccc(F)c(F)c1F`?
IC50 (P2X purinoceptor 7 [1]): 126 nM; IC50 (P2X purinoceptor 7 [2]): 1000 nM
